“And” between values parts separate entries of the source, which are not always exact repeats. Identical values can stand only once.
Tests used:
[1] = tested on: PC-9 cells; test: CCK-8 antiproliferation assay, PC-9; conditions: for Inhibitory efficacy: single repeats (Repeat 1-3), given as fraction
[2] = tested on: H460 cells; test: Flow cytometry detection for cell cycle, H460; assay type: cell-based, human; conditions: for G0/G1 / G2/M / S: single experiments (20200711, 20200810, 20200812)
Procedure: (§1) To investigate the effects of compounds e4 and e12 on various phases of the cell cycle, PC-9 cells were treated with compound e4 or e12 of various concentrations for 24 h, and H460 cells were treated with compound e4 or e12 of various concentrations for 12 h.
(§2) PC-9 or H460 (2 × 10^5–3 × 10^5/well) cells were seeded in six-well plates for 24 h, and then treated with 0.1% DMSO (as control), various concentrations of either compound e4 or e12 for 24 h (PC-9) or 12 h (H460), respectively. The treated cells were harvested, washed with PBS, and then stained using the cell-cycle staining kit according to the manufacturer’s manual. The distribution of cell-cycle phases with different DNA contents was determined by flow cytometry (BD LSRFortessa™ Flow Cytometer) and analyzed using ModFit LT software.

[3] = tested on: EGFR phosphorylation (Tyr1068) in PC-9 cells; test: Western blot, p-EGFR/EGFR in PC-9; conditions: for p-EGFR/EGFR: band density ratio; for p-EGFR/EGFR relative to DMSO: ratio normalised to DMSO = 1
Procedure: (§3) We also performed western blot analysis to evaluate the impact of e4 and e12 on EGFR signaling in PC-9 and H460 cells.
(§4) H460 cells were seeded in six-well plates with serum-free medium overnight, and then treated complete medium containing 0.1% DMSO, various concentrations (0.1, 1 and 10 μM) of either compound e4 or e12 for 2 h, respectively. […] Then the H460 cells were treated with complete medium containing EGF (10 ng/ml) for 5 min. Then the cells were harvested and washed with PBS, centrifuged, resuspended in 100–200 μl of RIPA lysis buffer containing Protease and Phosphatase Inhibitor Cocktail (1X), and then centrifuged for 5 min at 12,000 rpm at 4°C. The supernatant was used for protein analysis. […] Then the membrane was washed 5 min (X3) and incubated at 1:3,000 dilution of anti-rabbit secondary antibodies or 1:1,000 dilution of anti-mouse secondary antibodies for 1 h at RT. After washing with TBST 5 min (X3), protein bands were developed by chemiluminescence. The protein levels were quantified by the gray values of the bands in the resulting images by ImageJ, and the control group was used as the standard. […] The PC-9 cells were harvested and analyzed as above.

[4] = tested on: H1975 cells; test: CCK-8 antiproliferation assay, H1975; conditions: given as fraction, Repeat 1-3; for Inhibitory efficacy: H1975 cells
Procedure: The compounds were dissolved in DMSO to make a 20 μM stock solution and diluted to the concentration of working solutions with complete growth medium before administration.
Cells were seeded in 96-well plates: 3,000–5,000 cells/well in 100 ul. One day after seeding, the test compounds at concentration between 1.0 and 16.0 μ M or 0.1% DMSO (as control) were added to cells in triplicate. 48 h later, CCK-8 was added and incubated the plate for 1–4 h in the incubator. The absorbance at 450 nm were measured using a microplate reader (Bio-Tek).

[5] = tested on: PC-9 cells; test: Flow cytometry detection for cell cycle, PC-9; assay type: cell-based, human; conditions: for G0/G1 / G2/M / S: single repeats (Repeat 1-3)
Procedure: as §1, §2

[6] = tested on: AKT phosphorylation (S473) in PC-9 cells; test: Western blot, p-AKT/AKT in PC-9; conditions: for p-AKT/AKT: band density ratio; for p-AKT/AKT relative to DMSO: ratio normalised to DMSO = 1
Procedure: as §3, §4

[7] = tested on: AKT phosphorylation (S473) in H460 cells; test: Western blot, p-AKT/AKT in H460; conditions: for p-AKT/AKT: band density ratio; for p-AKT/AKT relative to DMSO: ratio normalised to DMSO
Procedure: as §3, §4

[8] = molecular target: wild-type EGFR (Homo sapiens, UniProt P00533); test: EGFR kinase assay (ELISA); conditions: for A450: raw ELISA absorbance
wild-type EGFR, sequence (P00533 25-1210): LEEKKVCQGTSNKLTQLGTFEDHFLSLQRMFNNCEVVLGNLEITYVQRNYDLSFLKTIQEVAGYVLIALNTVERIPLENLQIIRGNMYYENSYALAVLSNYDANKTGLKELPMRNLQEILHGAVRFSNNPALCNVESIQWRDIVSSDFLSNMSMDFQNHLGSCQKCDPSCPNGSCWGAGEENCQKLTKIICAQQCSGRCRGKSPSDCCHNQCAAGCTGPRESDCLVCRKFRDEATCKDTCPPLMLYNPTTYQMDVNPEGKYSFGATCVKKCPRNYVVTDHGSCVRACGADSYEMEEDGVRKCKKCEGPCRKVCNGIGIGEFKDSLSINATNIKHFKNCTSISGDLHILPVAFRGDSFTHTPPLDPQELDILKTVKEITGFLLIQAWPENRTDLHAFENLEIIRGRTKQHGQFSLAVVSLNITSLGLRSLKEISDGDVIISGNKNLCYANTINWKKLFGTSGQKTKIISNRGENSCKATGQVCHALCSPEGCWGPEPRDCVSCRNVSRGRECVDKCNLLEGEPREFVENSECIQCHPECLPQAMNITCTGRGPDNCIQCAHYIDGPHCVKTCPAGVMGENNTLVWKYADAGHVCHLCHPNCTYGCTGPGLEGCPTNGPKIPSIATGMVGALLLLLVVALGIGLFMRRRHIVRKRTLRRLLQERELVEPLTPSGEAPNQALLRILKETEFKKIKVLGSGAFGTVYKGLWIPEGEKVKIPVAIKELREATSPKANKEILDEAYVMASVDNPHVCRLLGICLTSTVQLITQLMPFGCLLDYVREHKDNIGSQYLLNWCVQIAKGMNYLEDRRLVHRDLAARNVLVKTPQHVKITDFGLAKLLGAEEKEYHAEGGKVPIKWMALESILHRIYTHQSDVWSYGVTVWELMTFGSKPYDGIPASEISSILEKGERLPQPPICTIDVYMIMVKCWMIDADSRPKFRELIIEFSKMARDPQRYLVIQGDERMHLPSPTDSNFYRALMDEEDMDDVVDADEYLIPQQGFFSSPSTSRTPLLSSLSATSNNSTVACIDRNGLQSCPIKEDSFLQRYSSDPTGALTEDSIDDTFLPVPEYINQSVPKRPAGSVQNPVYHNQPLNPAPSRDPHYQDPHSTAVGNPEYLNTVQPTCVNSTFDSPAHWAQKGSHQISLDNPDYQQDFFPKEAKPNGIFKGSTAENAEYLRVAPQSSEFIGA

## COCCOc1cc2ncnc(Nc3cccc(-c4cn(Cc5cc(Br)cc(Br)c5)nn4)c3)c2cc1OCCOC [e4, [6,7-Bis-(2-methoxy-ethoxy)-quinazolin-4-yl]-{3-[1-(3,5-dibromo-benzyl)-1H-[1,2,3]triazol-4-yl]-phenyl}-amine]
[1]; Homo sapiens, PC-9, 48 h, read-out: IC50 (μM) PC-9
  IC50: 4.38 ± 0.12 µM
[1]; Homo sapiens, PC-9, read-out: Inhibitory efficacy, PC-9, 1uM, single repeats (Repeat 1-3), given as fraction
  inhibition at 1 µM: 4.24%
[1]; Homo sapiens, PC-9, read-out: Inhibitory efficacy, PC-9, 2uM, single repeats (Repeat 1-3), given as fraction
  inhibition at 2 µM: 12.8%
[1]; Homo sapiens, PC-9, read-out: Inhibitory efficacy, PC-9, 4uM, single repeats (Repeat 1-3), given as fraction
  inhibition at 4 µM: 40%
[1]; Homo sapiens, PC-9, read-out: Inhibitory efficacy, PC-9, 8uM, single repeats (Repeat 1-3), given as fraction
  inhibition at 8 µM: 88.1%
[1]; Homo sapiens, PC-9, read-out: Inhibitory efficacy, PC-9, 16uM, single repeats (Repeat 1-3), given as fraction
  inhibition at 16 µM: 85.7%
[1]; PC-9, 1uM, 1 µM
  Inhibitory efficacy: 0.05688 and 0.04243
[1]; PC-9, 2uM, 2 µM
  Inhibitory efficacy: 0.1851 and 0.2067
[1]; PC-9, 4uM, 4 µM
  Inhibitory efficacy: 0.4288 and 0.3873
[1]; PC-9, 8uM, 8 µM
  Inhibitory efficacy: 0.8667 and 0.8549
[1]; PC-9, 16uM, 16 µM
  Inhibitory efficacy: 0.8604 and 0.8477
[2]; H460, 4uM
  G0/G1: 42.32% and 41.29% and 53.43%
  G2/M: 16.95% and 17.5% and 12.27%
  S: 40.73% and 41.21% and 34.3%
[2]; H460, 8uM
  G0/G1: 48.11% and 44.75% and 59.66%
  G2/M: 16.79% and 18.81% and 11.77%
  S: 35.11% and 36.45% and 28.56%
[2]; H460, 12uM
  G0/G1: 48.29% and 43.3% and 54.65%
  G2/M: 17.85% and 18.86% and 13.72%
  S: 33.86% and 38.02% and 31.63%
[2]; H460, various concentrations, 12 h
  percentage of cells in the G0/G1 phase: induced higher percentages
[3]; PC-9, 0.1 uM
  p-EGFR/EGFR: 0.3318
  p-EGFR/EGFR relative to DMSO: 0.2965
[3]; PC-9, 1 uM
  p-EGFR/EGFR: 0.2248
  p-EGFR/EGFR relative to DMSO: 0.2009
[3]; PC-9, 10 uM
  p-EGFR/EGFR: 0.5115
  p-EGFR/EGFR relative to DMSO: 0.4571
[3]; PC-9, especially at 10 μM
  phosphorylation of EGFR (western blot): suppressed
[4]; 2uM
  Inhibitory efficacy: 0.363 and 0.4168
[4]; 4uM
  Inhibitory efficacy: 0.3676 and 0.4565
[4]; 8uM
  Inhibitory efficacy: 0.9443
[4]; 16uM
  Inhibitory efficacy: 0.9548 and 0.9653
[4]; Homo sapiens, NCI-H1975, read-out: Inhibitory efficacy, H1975 cells, 2uM
  inhibition at 2 µM: 30.2%
[4]; Homo sapiens, NCI-H1975, read-out: Inhibitory efficacy, H1975 cells, 4uM
  inhibition at 4 µM: 39.3%
[4]; Homo sapiens, NCI-H1975, read-out: Inhibitory efficacy, H1975 cells, 8uM
  inhibition at 8 µM: 92.2%
[4]; Homo sapiens, NCI-H1975, read-out: Inhibitory efficacy, H1975 cells, 16uM
  inhibition at 16 µM: 96.1%
[5]; PC-9, 4uM
  G0/G1: 48.12 and 48.79 and 52.62
  G2/M: 15.27 and 15.42 and 15.56
  S: 36.61 and 35.79 and 31.83
[5]; PC-9, 8uM
  G0/G1: 53.18 and 53.63 and 55.05
  G2/M: 16.92 and 17.15 and 16.88
  S: 29.9 and 29.22 and 28.08
[5]; PC-9, 12uM
  G0/G1: 60.53 and 62.02 and 63.46
  G2/M: 23.33 and 22.27 and 17.86
  S: 16.14 and 15.71 and 18.68
[5]; PC-9, various concentrations, 24 h
  percentage of cells in the G0/G1 phase: induced higher percentages
[6]; PC-9, 0.1 uM
  p-AKT/AKT: 0.8512
  p-AKT/AKT relative to DMSO: 0.8172
[6]; PC-9, 1 uM
  p-AKT/AKT: 0.7155
  p-AKT/AKT relative to DMSO: 0.6869
[6]; PC-9, 10 uM
  p-AKT/AKT: 0.5338
  p-AKT/AKT relative to DMSO: 0.5125
[6]; PC-9, especially at 10 μM
  phosphorylation of AKT (western blot): suppressed
[7]; H460, 0.1 uM
  p-AKT/AKT: 1.245
  p-AKT/AKT relative to DMSO: 1.252
[7]; H460, 1 uM
  p-AKT/AKT: 0.733
  p-AKT/AKT relative to DMSO: 0.7369
[7]; H460, 10 uM
  p-AKT/AKT: 1.039
  p-AKT/AKT relative to DMSO: 1.044
[7]; H460, especially at 10 μM
  phosphorylation of AKT (western blot): suppressed
[8]; concentration 0.0001 nM (reference for normalisation), one value per replicate column
  inhibition at 100 fM: 0%
[8]; concentration 0.03 nM, one value per replicate column, 3e-05 µM
  Inhibition: 0.3205 and 0.9868
[8]; concentration 0.3 nM, one value per replicate column
  inhibition at 0.0003 µM: 8.65%
[8]; concentration 0.3 nM, one value per replicate column, 0.0003 µM
  Inhibition: 6.25
[8]; concentration 3 nM, one value per replicate column
  inhibition at 0.003 µM: 8.97%
[8]; concentration 3 nM, one value per replicate column, 0.003 µM
  Inhibition: 8.553
[8]; concentration 30 nM, one value per replicate column
  inhibition at 0.03 µM: 9.62%
[8]; concentration 30 nM, one value per replicate column, 0.03 µM
  Inhibition: 10.8553
[8]; concentration 300 nM, one value per replicate column
  inhibition at 0.3 µM: 10.3%
[8]; concentration 300 nM, one value per replicate column, 0.3 µM
  Inhibition: 11.1842
[8]; concentration 3000 nM, one value per replicate column
  inhibition at 3 µM: 13.8%
[8]; concentration 3000 nM, one value per replicate column, 3 µM
  Inhibition: 18.75
[8]; concentration 30000 nM, one value per replicate column
  inhibition at 30 µM: 70.2%
[8]; concentration 30000 nM, one value per replicate column, 30 µM
  Inhibition: 70.7237
[8]; concentration 0.0001 nM
  A450: 0.554 and 0.551
[8]; concentration 0.03 nM
  A450: 0.553 and 0.548
[8]; concentration 0.3 nM
  A450: 0.527 and 0.532
[8]; concentration 3 nM
  A450: 0.526 and 0.525
[8]; concentration 30 nM
  A450: 0.524 and 0.518
[8]; concentration 300 nM
  A450: 0.522 and 0.517
[8]; concentration 3000 nM
  A450: 0.511 and 0.494
[8]; concentration 30000 nM
  A450: 0.335 and 0.336
[8]; read-out: IC50 (μM) EGFR, ELISA, 3 μmol/L ATP
  IC50: 13 µM
